Patent publication US20200131156A1, “ARYLSULFONYLPYROLECARBOXAMIDE DERIVATIVES AS Kv3 POTASSIUM CHANNEL ACTIVATORS” (H. Lundbeck A/S, priority 2018, published 2020)

Molecular target: T1, hKv3.1b (Homo sapiens, UniProt P48547)
T1 construct: expressed in transfected cells
T1 sequence (P48547 1-585 isoform P48547-2): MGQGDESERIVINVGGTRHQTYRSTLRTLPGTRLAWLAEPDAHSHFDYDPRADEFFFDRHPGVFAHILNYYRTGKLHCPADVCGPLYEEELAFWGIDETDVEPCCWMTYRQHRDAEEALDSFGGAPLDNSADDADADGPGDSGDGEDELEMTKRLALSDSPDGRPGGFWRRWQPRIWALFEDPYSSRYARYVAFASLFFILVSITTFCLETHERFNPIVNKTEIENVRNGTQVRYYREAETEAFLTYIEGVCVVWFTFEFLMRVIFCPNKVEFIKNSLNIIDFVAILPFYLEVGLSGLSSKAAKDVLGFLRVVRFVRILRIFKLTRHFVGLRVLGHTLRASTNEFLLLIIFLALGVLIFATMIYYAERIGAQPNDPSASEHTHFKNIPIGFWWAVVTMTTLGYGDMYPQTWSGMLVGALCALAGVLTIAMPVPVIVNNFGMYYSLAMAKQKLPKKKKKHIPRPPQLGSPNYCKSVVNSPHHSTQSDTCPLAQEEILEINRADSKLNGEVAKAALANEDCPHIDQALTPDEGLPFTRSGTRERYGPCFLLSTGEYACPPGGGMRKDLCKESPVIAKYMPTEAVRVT
Test: Automated patch clamp (QPatch-16x) on HEK-293 cells stably expressing hKv3.1b
Type: cell-based
Conditions: for ECdelta5 mV: concentration needed to shift the activation threshold 5 mV; for Threshold Shift: maximum absolute hyperpolarizing shift of activation threshold at tested concentrations 0.37-30 μM
Protocol: HEK-293 cells stably expressing hKv3.1b were used for the experiments. Cells were cultured in DMEM medium supplemented with 10% Fetal Bovine Serum, 100 ug/mL Geneticidin and 100 u/mL Penicillin/Streptomycin (all from Gibco). Cells were grown to 80-90% confluency at 37° C. and 5% CO2. On the day of the experiment the cells were detached from the tissue culture flasks by Detachin, resuspended in serum free medium containing 25 mM HEPES and transferred to the cell hotel of the QPatch. The cells were used for experiments 0-5 hours after detachment.
Patch-clamp recordings were performed using the automated recording system QPatch-16x (Sophion Bioscience, Denmark). Cells were centrifuged, SFM removed and the cells were resuspended in extracellular buffer containing (in mM): 145 NaCl, 4 KCl, 1 MgCl2, 2 CaCl2, 10 HEPES and 10 glucose (added fresh on the day of experiment); pH 7.4 adjusted with NaOH, 305 mOsm adjusted with sucrose.
Single cell whole-cell recordings were carried out using an intracellular solution containing (in mM): 120 KCl, 32.25/10 KOH/EGTA, 5.374 CaCl2, 1.75 MgCl2, 10 HEPES, 4 Na2ATP (added fresh on the day), pH 7.2 adjusted with KOH, […] adjusted with sucrose. Cell membrane potentials were held at −80 mV and currents were evoked by voltage steps (200 ms duration) from −70 mV to +10 mV (in 10 mV increments). Vehicle (0.33% DMSO) or increasing concentration of compound (I) were applied and the voltage protocol was run 3 times (resulting in 3 min cpd incubation time). Five increasing concentrations of compound (I) were applied to each cell.
Leak subtraction protocol was applied at −33% of the sweep amplitude, and serial resistance values were constantly monitored.
Any cell where serial resistance exceeded 25 MOhm, membrane resistance less than 200 MOhm or current size at −10 mV less than 200 pA was eliminated from the subsequent analysis.
Data analysis was performed using Sophion's QPatch assay software in combination with Microsoft Excel™ (Redmond, Wash., USA). Current voltage relationships were plotted from the peak current at the individual voltage steps normalized to the vehicle addition at 10 mV. The voltage threshold for channel activation was defined as 5% activation of the peak current at 10 mV in presence of vehicle. The activity of the compounds was described as the ability to shift this current voltage relationship to more hyperpolarized potentials and is given as the maximum absolute shift possible at the tested concentrations (0.37, 1.11, 3.33, 10, 30 μM). Concentration response curves were plotted from the threshold shift at the individual concentrations and were fitted excel fit model 205 sigmoidal dose-response model (fit=A+((B−A)/1+((C/x)^D)))), where A is the minimum value, B the maximum value, C the EC50 value and D the slope of the curve. The concentration needed to shift the threshold 5 mV was readout from this curve (ECdelta5 mV).

| SMILES | ECdelta5 mV | Threshold Shift |
| --- | --- | --- |
| Cc1ccc(S(=O)(=O)n2ccc(C(=O)NCc3ncc(C)cn3)c2)cc1 [Compound 1, N-[(5-methylpyrimidin-2-yl)methyl]-1-(p-tolylsulfonyl)pyrrole-3-carboxamide] | 1600 nM | 27 mV |
| Cc1ccc(S(=O)(=O)n2ccc(C(=O)NCc3cnc(C)nc3)c2)cc1 [Compound 2, N-[(2-methylpyrimidin-5-yl)methyl]-1-(p-tolylsulfonyl)pyrrole-3-carboxamide] | 750 nM | 40 mV |
| Cc1ccc(S(=O)(=O)n2ccc(C(=O)NCc3ccc(C)nn3)c2)cc1 [Compound 3, N-[(6-methylpyridazin-3-yl)methyl]-1-(p-tolylsulfonyl)pyrrole-3-carboxamide] | 1100 nM | 25 mV |
| Cc1cnc(CNC(=O)c2ccn(S(=O)(=O)c3ccccc3F)c2)cn1 [Compound 4, 1-(2-fluorophenyl)sulfonyl-N-[(5-methylpyrazin-2-yl)methyl]pyrrole-3-carboxamide] | 3100 nM | 17 mV |
| Cc1cnc(CNC(=O)c2ccn(S(=O)(=O)c3cccc(F)c3)c2)cn1 [Compound 5, 1-(3-fluorophenyl)sulfonyl-N-[(5-methylpyrazin-2-yl)methyl]pyrrole-3-carboxamide] | 7800 nM | 10 mV |
| Cc1cnc(CNC(=O)c2ccn(S(=O)(=O)c3ccc(F)cc3)c2)cn1 [Compound 6, 1-(4-fluorophenyl)sulfonyl-N-[(5-methylpyrazin-2-yl)methyl]pyrrole-3-carboxamide] | 2300 nM | 24 mV |
| COc1ccc(S(=O)(=O)n2ccc(C(=O)NCc3cnc(C)cn3)c2)cc1 [Compound 7, 1-(4-methoxyphenyl)sulfonyl-N-[(5-methylpyrazin-2-yl)methyl]pyrrole-3-carboxamide] | 1300 nM | 33 mV |
| Cc1ccc(S(=O)(=O)n2cc(C)c(C(=O)NCc3cnc(C)cn3)c2)cc1 [Compound 8, 4-methyl-N-[(5-methylpyrazin-2-yl)methyl]-1-(p-tolylsulfonyl)pyrrole-3-carboxamide] | 4000 nM | 12 mV |
| Cc1ccc(S(=O)(=O)n2ccc(C(=O)NCc3ccccn3)c2)cc1 [Compound 9, 1-(p-tolylsulfonyl)-N-(2-pyridylmethyl) pyrrole-3-carboxamide] | 2400 nM | 15 mV |
| COc1cccnc1CNC(=O)c1ccn(S(=O)(=O)c2ccc(C)cc2)c1 [Compound 10, N-[(3-methoxy-2-pyridyl)methyl]-1-(p-tolylsulfonyl)pyrrole-3-carboxamide] | 3600 nM | 10 mV |
| Cc1ccc(S(=O)(=O)n2ccc(C(=O)NCc3ncccc3F)c2)cc1 [Compound 11, N-[(3-fluoro-2-pyridyl)methyl]-1-(p-tolylsulfonyl) pyrrole-3-carboxamide] | 1300 nM | 16 mV |
| Cc1ccc(S(=O)(=O)n2ccc(C(=O)NCc3cc(F)ccn3)c2)cc1 [Compound 12, N-[(4-fluoro-2-pyridyl)methyl]-1-(p-tolylsulfonyl) pyrrole-3-carboxamide] | 1700 nM | 16 mV |
| Cc1ccc(S(=O)(=O)n2ccc(C(=O)NCc3ccc(F)cn3)c2)cc1 [Compound 13, N-[(5-fluoro-2-pyridyl)methyl]-1-(p-tolylsulfonyl) pyrrole-3-carboxamide] | 1700 nM | 13 mV |
| Cc1ccc(S(=O)(=O)n2ccc(C(=O)NCc3cccnc3)c2)cc1 [Compound 14, 1-(p-tolylsulfonyl)-N-(3-pyridylmethyl) pyrrole-3-carboxamide] | 1500 nM | 23 mV |
| Cc1ccc(S(=O)(=O)n2ccc(C(=O)NCc3cccc(C)n3)c2)cc1 [Compound 15, N-[(6-methyl-2-pyridyl)methyl]-1-(p-tolylsulfonyl)pyrrole-3-carboxamide] | 1700 nM | 14 mV |
| Cc1ccc(S(=O)(=O)n2ccc(C(=O)NCc3cc(C)ccn3)c2)cc1 [Compound 16, N-[(4-methyl-2-pyridyl)methyl]-1-(p-tolylsulfonyl)pyrrole-3-carboxamide] | 3000 nM | 16 mV |
| Cc1ccc(S(=O)(=O)n2ccc(C(=O)NCc3ncccc3C)c2)cc1 [Compound 17, N-[(3-methyl-2-pyridyl)methyl]-1-(p-tolylsulfonyl)pyrrole-3-carboxamide] | 2300 nM | 16 mV |
| COc1ccc(CNC(=O)c2ccn(S(=O)(=O)c3ccc(C)cc3)c2)nc1 [Compound 18, N-[(5-methoxy-2-pyridyl)methyl]-1-(p-tolylsulfonyl) pyrrole-3-carboxamide] | 3500 nM | 10 mV |
| COc1ccnc(CNC(=O)c2ccn(S(=O)(=O)c3ccc(C)cc3)c2)c1 [Compound 19, N-[(4-methoxy-2-pyridyl)methyl]-1-(p-tolylsulfonyl) pyrrole-3-carboxamide] | 2100 nM | 11 mV |
| Cc1ccc(S(=O)(=O)n2ccc(C(=O)NCc3cnc4nccn4c3)c2)cc1 [Compound 24, N-(imidazo[1,2-a]pyrimidin-6-ylmethyl)-1-(p-tolylsulfonyl)pyrrole-3-carboxamide] | 3200 nM | 24 mV |
| Cc1ccc(S(=O)(=O)n2ccc(C(=O)NCc3cnc(C)cn3)c2)cc1 [Compound 25, N-[(5-methylpyrazin-2-yl)methyl]-1-(p-tolylsulfonyl) pyrrole-3-carboxamide] | 1100 nM | 37 mV |
| Cc1ccc(S(=O)(=O)n2ccc(C(=O)NCc3ccc(C)nc3)c2)cc1 [Compound 26, N-[(6-methyl-3-pyridyl)methyl]-1-(p-tolylsulfonyl)pyrrole-3-carboxamide] | 930 nM | 22 mV |
| Cc1cnc(CNC(=O)c2ccn(S(=O)(=O)c3ccccc3C)c2)cn1 [Compound 28, N-[(5-methylpyrazin-2-yl)methyl]-1-(o-tolylsulfonyl) pyrrole-3-carboxamide] | 1500 nM | 27 mV |
| Cc1ccc(S(=O)(=O)n2ccc(C(=O)NCc3cnccn3)c2)cc1 [Compound 29, 1-(p-tolylsulfonyl)-N-(pyrazin-2-ylmethyl) pyrrole-3-carboxamide] | 1300 nM | 31 mV |
| Cc1cccc(S(=O)(=O)n2ccc(C(=O)NCc3cnc(C)cn3)c2)c1 [Compound 30, N-[(5-methylpyrazin-2-yl)methyl]-1-(m-tolylsulfonyl)pyrrole-3-carboxamide] | 2500 nM | 17 mV |
| Cc1ccc(S(=O)(=O)n2ccc(C(=O)NCc3nnc(C)o3)c2)cc1 [Compound 31, N-[(5-methyl-1,3,4-oxadiazol-2-yl)methyl]-1-(p-tolylsulfonyl)pyrrole-3-carboxamide] | 9600 nM | 13 mV |
| Cc1ccc(S(=O)(=O)n2ccc(C(=O)NCc3cc(C)on3)c2)cc1 [Compound 32, N-[(5-methylisoxazol-3-yl)methyl]-1-(p-tolylsulfonyl) pyrrole-3-carboxamide] | 1300 nM | 16 mV |
